According to PMC12566046, “Arylpiperazinyl-Benzocycloheptapyrrole-Carboxamides Endowed with Dual Anticancer and Antiviral Activities” (Molecules, 2025):
Where two headings read alike, the source gives them in different places.

Key:
[1] = system: SF-295 (CNS cancer cell line); experiment: NCI-60 single-dose assay; assay type: cell-based, human; settings: SF-295; single-dose assay
Outline: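 Single-dose cytotoxicity test run in the NCI-60 panel of human cancer cell lines. Threshold inhibition criteria across a minimum number of lines decided progression to five-dose testing.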

[2] = system: HT29 (colon cancer cell line); experiment: NCI-60 five-dose assay; assay type: cell-based, human; settings: read-out: Growth inhibition 50 (GI50)
[3] = system: Prostate Cancer panel; experiment: NCI-60 five-dose assay, panel-level GI50 (mean graph midpoint); assay type: cell-based, human; settings: Prostate Cancer panel average, read-out: GI50 mean graph midpoint (MG_MID)
Method: (§1) Due to these preliminary results, six compounds, 1, 5, 10, 11, 17, and 20, were selected for the five-dose screen NCI-programme against the same panel of tumour cell lines.
(§2) Next, a mean graph midpoint (MG_MD) was calculated for compounds 1, 5, 10, 11, 17, and 20 and reported as waterfall graphs GI50, TGI, and LC50 in the Supplementary Materials (Figures S69–S86). In Table 9, we reported the average GI50 for the nine-cancer panels, underlining both the activity and selectivity for compounds 1, 10, 11, and 20.

[4] = system: CNS Cancer panel; experiment: as above; assay type: cell-based, human; settings: CNS Cancer panel average, read-out: GI50 mean graph midpoint (MG_MID)
Method: as §1, §2

[5] = system: Renal Cancer panel; experiment: as above; assay type: cell-based, human; settings: Renal Cancer panel average, read-out: GI50 mean graph midpoint (MG_MID)
Method: as §1, §2

[6] = system: Ovarian Cancer panel; experiment: as above; assay type: cell-based, human; settings: Ovarian Cancer panel average, read-out: GI50 mean graph midpoint (MG_MID)
Method: as §1, §2

[7] = system: Breast Cancer panel; experiment: as above; assay type: cell-based, human; settings: Breast Cancer panel average, read-out: GI50 mean graph midpoint (MG_MID)
Method: as §1, §2

[8] = system: Non-Small Cell Lung Cancer panel; experiment: as above; assay type: cell-based, human; settings: Non-Small Cell Lung Cancer panel average, read-out: GI50 mean graph midpoint (MG_MID)
Method: as §1, §2

[9] = system: UACC-62 (melanoma cell line); experiment: NCI-60 five-dose assay
[10] = system: HL-60(TB) (leukemia cell line); experiment: NCI-60 five-dose assay; assay type: cell-based, human; settings: five doses (10^−4–10^−8 M), read-out: Growth inhibition 50 (GI50)
[11] = system: COLO 205 (colon cancer cell line); experiment: NCI-60 five-dose assay; assay type: cell-based, human; settings: five doses (10^−4–10^−8 M), read-out: Growth inhibition 50 (GI50)
[12] = system: SW-620 (colon cancer cell line); experiment: NCI-60 five-dose assay; assay type: cell-based, human; settings: SW-620, five doses (10^−4–10^−8 M), read-out: Growth inhibition 50 (GI50)
[13] = system: MDA-MB-435 (melanoma cell line); experiment: NCI-60 five-dose assay
[14] = system: MALME-3M (melanoma cell line); experiment: NCI-60 five-dose assay; settings: for GI50: read-out: Growth inhibition 50 (GI50); for CC50: read-out: LC50 (molar concentration leading to 50% net cell death)
[15] = system: NCI cancer panel (all cell lines); experiment: NCI-60 five-dose assay, overall mean graph midpoint (MG_MID); assay type: cell-based, human; settings: MG_MID over all panels, read-out: GI50 mean graph midpoint (MG_MID)
Method: as §1, §2

[16] = system: MOLT-4 (leukemia cell line); experiment: NCI-60 five-dose assay; assay type: cell-based, human; settings: five doses (10^−4–10^−8 M), read-out: Growth inhibition 50 (GI50)
[17] = system: RPMI-8226 (leukemia cell line); experiment: NCI-60 five-dose assay; assay type: cell-based, human; settings: five doses (10^−4–10^−8 M), read-out: Growth inhibition 50 (GI50)
[18] = system: UACC-257 (melanoma cell line); experiment: NCI-60 five-dose assay
[19] = system: SR (leukemia cell line); experiment: NCI-60 five-dose assay; assay type: cell-based, human; settings: five doses (10^−4–10^−8 M), read-out: Growth inhibition 50 (GI50)
[20] = system: HCT-116 (colon cancer cell line); experiment: NCI-60 five-dose assay; assay type: cell-based, human; settings: five doses (10^−4–10^−8 M), read-out: Growth inhibition 50 (GI50)
[21] = system: CCRF-CEM (leukemia cell line); experiment: NCI-60 five-dose assay; assay type: cell-based, human; settings: five doses (10^−4–10^−8 M), read-out: Growth inhibition 50 (GI50)
[22] = system: Leukemia panel; experiment: NCI-60 five-dose assay, panel-level GI50 (mean graph midpoint, range); assay type: cell-based, human; settings: Leukemia panel average, read-out: GI50 mean graph midpoint (MG_MID)
Method: as §1, §2

[23] = system: Colon Cancer panel; experiment: as above; assay type: cell-based, human; settings: Colon Cancer panel average, read-out: GI50 mean graph midpoint (MG_MID)
Method: as §1, §2

[24] = system: Melanoma panel; experiment: as above; assay type: cell-based, human
Method: as §1, §2

[25] = system: KM12 (colon cancer cell line); experiment: NCI-60 five-dose assay; assay type: cell-based, human; settings: five doses (10^−4–10^−8 M), read-out: Growth inhibition 50 (GI50)
[26] = system: HCT-15 (colon cancer cell line); experiment: NCI-60 five-dose assay; assay type: cell-based, human; settings: five doses (10^−4–10^−8 M), read-out: Growth inhibition 50 (GI50)
[27] = system: Huh-7 cells; experiment: Cytotoxicity on uninfected Huh-7 cells (WST-8, crystal violet); settings: read-out: ZIKV/Huh‐7 CC50; preliminary screening (50, 5, 0.5 μM), Huh-7
[28] = system: MDCK cells; experiment: Cytotoxicity on uninfected MDCK cells (WST-8, crystal violet); settings: read-out: IAV/MDCK CC50; preliminary screening (50, 5, 0.5 μM), MDCK

O=C(NCCCN1CCN(c2ccccc2)CC1)c1cc2c([nH]1)-c1ccccc1CCC2 [Compound 10, N-(3-(4-Phenylpiperazin-1-yl)propyl)-1,4,5,6-tetrahydrobenzo[6,7]cyclohepta[1,2-b]pyrrole-2-carboxamide]
growth inhibition (GI%) and cytotoxicity (negative values) [1]: 90.84%
GI50 ([2]; Homo sapiens, HT-29, five doses (10^−4–10^−8 M)): 3.14 µM
GI50 ([3]; Homo sapiens): 6.61 µM
GI50 ([4]; Homo sapiens): 17 µM
GI50 ([5]; Homo sapiens): 8.71 µM
GI50 ([6]; Homo sapiens): 12.3 µM
GI50 ([7]; Homo sapiens): 8.32 µM
GI50 ([8]; Homo sapiens): 9.33 µM
GI50 ([9]; Homo sapiens, UACC-62, read-out: Growth inhibition 50 (GI50)): 9.02 µM
TGI (molar concentration giving total growth inhibition) ([9]; UACC-62): 25.12 µM
GI50 ([10]; Homo sapiens): 5.58 µM
GI50 ([11]; Homo sapiens): 1.92 µM
GI50 ([12]; Homo sapiens): 8.89 µM
GI50 ([13]; Homo sapiens, MDA-MB-435, read-out: Growth inhibition 50 (GI50)): 7.88 µM
CC50 ([13]; Homo sapiens, MDA-MB-435, read-out: LC50 (molar concentration leading to 50% net cell death)): 40.7 µM
TGI (molar concentration giving total growth inhibition) ([13]; MDA-MB-435): 18.62 µM
GI50 ([14]; Homo sapiens, Malme-3M): 1.65 µM
CC50 ([14]; Homo sapiens, Malme-3M): 15.5 µM
TGI (molar concentration giving total growth inhibition) ([14]; MALME-3M): 4.36 µM
GI50 ([15]; Homo sapiens): 7.24 µM
GI50 ([16]; Homo sapiens): 4.97 µM
GI50 ([17]; Homo sapiens): 3 µM
GI50 ([18]; Homo sapiens, UACC-257, read-out: Growth inhibition 50 (GI50)): 2.29 µM
TGI (molar concentration giving total growth inhibition) ([18]; UACC-257): 6.61 µM
GI50 ([19]; Homo sapiens): 2.29 µM
GI50 ([20]; Homo sapiens): 4.83 µM
GI50 ([21]; Homo sapiens): 8.21 µM
GI50 ([22]; Homo sapiens): 2.95 µM
GI50 ([23]; Homo sapiens): 3.98 µM
GI50 ([24]; Homo sapiens, Melanoma panel average, read-out: GI50 mean graph midpoint (MG_MID)): 4.07 µM
GI50 ([24]; Homo sapiens, five-dose screen, number of cell lines as named in the sentence, read-out: GI50, range over melanoma cell lines): 1.65 to 2.78 µM
GI50 ([25]; Homo sapiens): 4.89 µM
GI50 ([26]; Homo sapiens): 4.71 µM

N-(3-(4-Benzylpiperazin-1-yl)propyl)-2-chloro-1,4,5,6-tetrahydrobenzo[6,7]cyclohepta[1,2-b]pyrrole-2-carboxamide [Compound 11]
GI50 ([2]; five doses (10^−4–10^−8 M)): 2.6 µM
GI50 [3]: 5.13 µM
GI50 [4]: 5.25 µM
GI50 [5]: 5.89 µM
GI50 [6]: 7.94 µM
GI50 [7]: 3.47 µM
GI50 [8]: 7.08 µM
TGI (molar concentration giving total growth inhibition) ([9]; UACC-62): 9.77 µM
GI50 ([9]; read-out: Growth inhibition 50 (GI50), UACC-62, five doses (10^−4–10^−8 M)): 2.55 µM
CC50 ([9]; read-out: LC50 (molar concentration leading to 50% net cell death), UACC-62): 31.6 µM
GI50 [10]: 2.92 µM
GI50 [11]: 1.65 µM
GI50 [12]: 3.57 µM
TGI (molar concentration giving total growth inhibition) ([13]; MDA-MB-435): 7.41 µM
GI50 ([13]; read-out: Growth inhibition 50 (GI50), MDA-MB-435, five doses (10^−4–10^−8 M)): 2.59 µM
CC50 ([13]; read-out: LC50 (molar concentration leading to 50% net cell death), MDA-MB-435): 30.2 µM
TGI (molar concentration giving total growth inhibition) ([14]; MALME-3M): 3.48 µM
GI50 ([14]; MALME-3M, five doses (10^−4–10^−8 M)): 1.9 µM
CC50 ([14]; MALME-3M): 6.46 µM
GI50 [15]: 4.47 µM
GI50 [16]: 2.69 µM
GI50 [17]: 2.2 µM
TGI (molar concentration giving total growth inhibition) ([18]; UACC-257): 3.39 µM
GI50 ([18]; read-out: Growth inhibition 50 (GI50), UACC-257, five doses (10^−4–10^−8 M)): 1.74 µM
CC50 ([18]; read-out: LC50 (molar concentration leading to 50% net cell death), UACC-257): 6.61 µM
CC50 [27]: 4.89 µM
GI50 [19]: 2.49 µM
GI50 [20]: 3.37 µM
GI50 [21]: 3.89 µM
CC50 [28]: 5.38 µM
GI50 [22]: 2.88 µM
GI50 [23]: 2.81 µM
GI50 ([24]; Melanoma panel average, read-out: GI50 mean graph midpoint (MG_MID)): 2.34 µM
GI50 [25]: 4.11 µM
GI50 [26]: 3.65 µM
